Results: PubChem BioAssay AID1845209 (Molecular Pharmacology Branch, DTP, NCI, 2023)
pIC50: −log10 of the molar value. Several values for one entry are separate records, joined by “and”; a condition that tells them apart may be missing. Equal values may be shown once.

Test system: NCI-H211 tumor spheroids, viability percent test/control
Assay: Anticancer human tumor NCI-H211 cell line growth inhibition;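 note: spheroids exposed to agents for seven days before readout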
Conditions: spheroids with HUVEC and MSC; for viability, T/C: stronger effect = lower value; active = viability on the fitted dose curve at most 10% of control; inactive = the rest
In short: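 Single agents and combinations were tested on spheroids built from tumor cells plus HUVEC and hMSC, at half-log dilutions starting at or near clinical Cmax, else 10 microM; final DMSO 0.25% (v/v).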

[1] = curve of first compound, second compound 1 µM
[2] = curve of first compound, second compound 3.16 µM
[3] = curve of first compound, second compound 10 µM
[4] = curve of first compound, second compound 31.6 µM
[5] = curve of first compound, second compound 100 µM
[6] = second compound 1 µM, first compound 0.0949 µM
[7] = second compound 1 µM, first compound 0.3 µM
[8] = second compound 1 µM, first compound 0.949 µM
[9] = second compound 1 µM, first compound 3 µM
[10] = second compound 3.16 µM, first compound 0.0949 µM
[11] = second compound 3.16 µM, first compound 0.3 µM
[12] = second compound 3.16 µM, first compound 0.949 µM
[13] = second compound 3.16 µM, first compound 3 µM
[14] = second compound 10 µM, first compound 0.0949 µM
[15] = second compound 10 µM, first compound 0.3 µM
[16] = second compound 10 µM, first compound 0.949 µM
[17] = second compound 10 µM, first compound 3 µM
[18] = second compound 31.6 µM, first compound 0.0949 µM
[19] = second compound 31.6 µM, first compound 0.3 µM
[20] = second compound 31.6 µM, first compound 0.949 µM
[21] = second compound 31.6 µM, first compound 3 µM
[22] = second compound 100 µM, first compound 0.0949 µM
[23] = second compound 100 µM, first compound 0.3 µM
[24] = second compound 100 µM, first compound 0.949 µM
[25] = second compound 100 µM, first compound 3 µM

O=C(c1cc(Cc2n[nH]c(=O)c3ccccc23)ccc1F)N1CCN(C(=O)C2CC2)CC1 + Cn1nnc2c(C(N)=O)ncn2c1=O
active: viability, T/C [9] 11.2% | viability, T/C (second compound 1 µM, first compound 9.49 µM) 7.85% | viability, T/C (second compound 1 µM, first compound 30 µM) 6.43% | viability, T/C [13] 8.6% | viability, T/C (second compound 3.16 µM, first compound 9.49 µM) 8.67% | viability, T/C (second compound 3.16 µM, first compound 30 µM) 6.42% | viability, T/C [16] 8.65% | viability, T/C [17] 8.76% | viability, T/C (second compound 10 µM, first compound 9.49 µM) 8.42% | viability, T/C (second compound 10 µM, first compound 30 µM) 5.87% | viability, T/C [19] 10.7% | viability, T/C [20] 8.79% | viability, T/C [21] 8.73% | viability, T/C (second compound 31.6 µM, first compound 9.49 µM) 8.23% | viability, T/C (second compound 31.6 µM, first compound 30 µM) 6.62% | viability, T/C [23] 9.41% | viability, T/C [24] 10.1% | viability, T/C [25] 9.99% | viability, T/C (second compound 100 µM, first compound 9.49 µM) 8.37% | viability, T/C (second compound 100 µM, first compound 30 µM) 6.94%
inactive: viability, T/C [6] 38.8% | viability, T/C [7] 24.3% | viability, T/C [8] 9.48% | viability, T/C [10] 39.2% | viability, T/C [11] 16.4% | viability, T/C [12] 12.2% | viability, T/C [14] 20.4% | viability, T/C [15] 13.6% | viability, T/C [18] 9.76% | viability, T/C [22] 10.7%
> 7.02: pIC50 [1] | pIC50 [2] | pIC50 [3] | pIC50 [4] | pIC50 [5]

Cc1cc(C)c(CNC(=O)c2cc(-c3ccc(CN4CCOCC4)cc3)cc3c2cnn3C2CCCC2)c(=O)[nH]1
inactive: viability, T/C (compound 0.0316 µM) 106% and 79.2% and 96.2% | viability, T/C (compound 0.1 µM) 102% (2×) and 89.3% | viability, T/C (compound 0.316 µM) 102% and 95.7% and 100% | viability, T/C (compound 1 µM) 96.7% and 87.9% and 102% | viability, T/C (compound 3.16 µM) 91.7% and 82.2% and 104% | viability, T/C (compound 10 µM) 52% and 33.5% and 63.2%
< 5.00 and 5.17: pIC50 (curve of compound)

Cn1nnc2c(C(N)=O)ncn2c1=O
inactive: viability, T/C (compound 1 µM) 98.3% [middle of 10 runs] | viability, T/C (compound 10 µM) 92.8% [middle of 10 runs]

CNCc1ccc(-c2cc(-c3nc(-c4ccc(S(=O)(=O)C(C)C)cc4)cnc3N)on2)cc1 + Cn1nnc2c(C(N)=O)ncn2c1=O
7.94: pIC50 [1]
active: viability, T/C [6] 6.53% | viability, T/C [7] 1.07% | viability, T/C [8] 0.07% | viability, T/C [9] 0.11% | viability, T/C [10] 7.5% | viability, T/C [11] 0.64% | viability, T/C [12] 0.13% | viability, T/C [13] 0.1% | viability, T/C [14] 6.3% | viability, T/C [15] 0.72% | viability, T/C [16] 0.13% | viability, T/C [17] 0.13% | viability, T/C (second compound 31.6 µM, first compound 0.03 µM) 9.23% | viability, T/C [18] 2.14% | viability, T/C [19] 1.16% | viability, T/C [20] 0.14% | viability, T/C [21] 0.14% | viability, T/C (second compound 100 µM, first compound 0.03 µM) 2.34% | viability, T/C [22] 1.63% | viability, T/C [23] 1.21% | viability, T/C [24] 0.17% | viability, T/C [25] 0.23%
7.71: pIC50 [2]
> 8.02: pIC50 [4] | pIC50 [5]
7.77: pIC50 [3]
inactive: viability, T/C (second compound 1 µM, first compound 0.00949 µM) 53% | viability, T/C (second compound 1 µM, first compound 0.03 µM) 35.3% | viability, T/C (second compound 3.16 µM, first compound 0.00949 µM) 71% | viability, T/C (second compound 3.16 µM, first compound 0.03 µM) 37.9% | viability, T/C (second compound 10 µM, first compound 0.00949 µM) 66.9% | viability, T/C (second compound 10 µM, first compound 0.03 µM) 32.9% | viability, T/C (second compound 31.6 µM, first compound 0.00949 µM) 34% | viability, T/C (second compound 100 µM, first compound 0.00949 µM) 11%
